For one data set, the system named is NCI-H292 tumour model. In words: Anti-EGFR ADCs in the NCI-H292 tumour model on single treatment. Type of data set: in vivo, female NMRI-nude mice. Conditions: 2.5 mg/kg once on day 9; day 25. The procedure:
Growth Inhibition/Regression of Experimental Tumours in the Mouse
The tumour area is determined as length×width.
When after the end of the treatment all groups of the experiment are terminated at the same time, the tumours can be removed and weighed.
C-6c. Efficacy of the Anti-EGFR Antibody Drug Conjugates in the NCI-H292 Tumour Model on Single Treatment
After the treatment, the tumour growth is monitored up to day 25.

In a further data set the test system is NCI-H292. In words: Cytotoxic effects, MTT assay. Format: cell-based. The following applies: Homo sapiens, 72 h incubation. As to the method:
The cells are cultivated by a standard method, as indicated in the […] (ATCC) for the respective cell lines.
At the end of the selected incubation time, the MTT reagent is incubated with the cells for 4 h, followed by lysis of the cells overnight by addition of the detergent. […] The proliferation of cells which were not treated with test substance but were otherwise identically treated was defined as the 100% figure.
(Tetrazolium assays rely on reduction of a dye to a coloured formazan, in cell work by metabolically active cells.)

Data set [1] deals with T1, human kinesin spindle protein KSP/Eg5 (Homo sapiens, UniProt P52732).
T1 construct: The motor domain of the human kinesin spindle protein KSP/Eg5; purchased tebu-bio/Cytoskeleton Inc 027EG01-XL
T1 sequence (P52732 18-359 limits assumed): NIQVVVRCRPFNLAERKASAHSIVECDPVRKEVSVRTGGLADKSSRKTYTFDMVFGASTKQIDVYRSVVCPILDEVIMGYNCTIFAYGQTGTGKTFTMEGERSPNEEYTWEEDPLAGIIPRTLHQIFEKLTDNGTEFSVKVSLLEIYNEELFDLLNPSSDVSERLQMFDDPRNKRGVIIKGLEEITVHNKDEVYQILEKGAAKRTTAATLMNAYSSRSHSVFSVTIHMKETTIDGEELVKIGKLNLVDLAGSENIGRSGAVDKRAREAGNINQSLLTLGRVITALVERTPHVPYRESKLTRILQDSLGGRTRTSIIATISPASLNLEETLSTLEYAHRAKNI
Description: Inhibition of the kinesin spindle protein KSP/Eg5 (ATPase, malachite green). Type of data set: biochemical. The following applies: 10 nM KSP motor domain, 500 μM ATP, 2 h RT. The procedure, abridged:
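KSP/Eg5 motor domain (10 nM) preincubated 5 min at RT with 50 μg/ml taxol-stabilized bovine or porcine microtubules in 15 mM PIPES pH 6.8, 5 mM MgCl2, 10 mM DTT. IC50 = mean of three experiments.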

Data set [2] is described as follows: Cell permeability, flux assay using Caco-2 cells. The following applies: human, Caco-2. A general note: Caco-2 cells form a polarised layer with tight junctions and transporters.
Data set [3] concerns the target T2, recombinant human TWEAKR protein (TPP-2305) (Homo sapiens, UniProt Q9NP84).
T2 construct: purchased Fitzgerald Inc 30R-AT080
Description: Binding affinities by Biacore analysis. The following applies: monovalent. As to the method:
Determination of Binding Affinities by Biacore Analysis:
Binding affinities of anti-TWEAKR antibodies were examined using surface plasmon resonance analysis on a Biacore T100 instrument (GE Healthcare Biacore, Inc.). The antibodies were immobilized on a CM5 sensor chip using an indirect capture reagent, anti-human IgG(Fc). […] Anti-TWEAKR antibodies were injected at a concentration of 10 μg/ml at […] for 10 sec.
Sensorgrams were generated after in-line reference cell correction, followed by subtraction of the buffer sample. The dissociation constant (KD) was calculated based on the ratio of association (kon) and dissociation (koff) constants, obtained by fitting sensorgrams using a 1:1 first order binding model.
(SPR reads the build-up and loss of mass on a sensor chip optically.)

Bounds are passed on as bounds.

Take `CC(C)(C)[C@H](c1nc(-c2cc(F)ccc2F)cn1Cc1ccccc1)N(CCCN)C(=O)CO` [toxophor A, N-(3-aminopropyl)-N-{(1R)-1-[1-benzyl-4-(2,5-difluorophenyl)-1H-imidazol-2-yl]-2,2-dimethylpropyl}-2-hydroxyacetamide]: in the data set on NCI-H292 tumour model, the T/C area turned out to be 0.87 and the T/C weight is 0.82.
The matching figures for `CC(C)(C)[C@H](c1nc(-c2cc(F)ccc2F)cn1Cc1ccccc1)N(CC[C@@H](N)CF)C(=O)CO` [toxophor B, N-[(3R)-3-amino-4-fluorobutyl]-N-{(1R)-1-[1-benzyl-4-(2,5-difluorophenyl)-1H-imidazol-2-yl]-2,2-dimethylpropyl}-2-hydroxyacetamide]: 0.57 and 0.40.
Usually IC50 stands for the midpoint of a concentration-inhibition curve. High values mean weaker potency, low ones greater potency. As a reminder, the Papp B→A is how fast a substance crosses the layer from the basolateral side. What is called efflux ratio is the permeability from basolateral to apical divided by that in the opposite direction, in the common usage. Regarding `CC(C)(C)[C@H](c1cc(-c2cc(F)ccc2F)cn1Cc1ccccc1)N(CCCN)C(=O)CSCCC(N)C(=O)O.O=C(O)C(F)(F)F.O=C(O)C(F)(F)F` (stereo partly drawn) [Example 232, S-{2-[(3-Aminopropyl){(1R)-1-[1-benzyl-4-(2,5-difluorophenyl)-1H-pyrrol-2-yl]-2,2-dimethylpropyl}amino]-2-oxoethyl}homocysteine/trifluoroacetic acid (1:2)], the results for the IC50 (with NCI-H292; in data set [1]) were 15.5 nM and 2.2 nM, respectively. In data set [2], the Papp B→A at 2 h was 4.9 ×10⁻⁶ cm/s. The efflux ratio at 2 h in data set [2] came out at 14.
`CC(C)(C)[C@H](c1nn(-c2cc(F)ccc2F)cc1Cc1ccccc1)N(CC[C@H](N)C(=O)NCCNC(=O)CN1C(=O)CC(SC[C@H](N)C(=O)O)C1=O)C(=O)CO.O=C(O)C(F)(F)F` (stereo partly drawn) [Example 131, S-[1-(2-{[2-({(2S)-2-Amino-4-[{(1R)-1-[4-benzyl-1-(2,5-difluorophenyl)-1H-pyrazol-3-yl]-2,2-dimethylpropyl}(glycoloyl)amino]butanoyl}amino)ethyl]amino}-2-oxoethyl)-2,5-dioxopyrrolidin-3-yl]-L-cysteine/trifluoroacetic acid (1:1)] came in with an IC50 with NCI-H292 of no less than 500 nM. For the same molecule, in data set [1], the IC50 is 1.24 nM. Besides, in data set [2], the Papp B→A at 2 h was found to be 0.9 ×10⁻⁶ cm/s and the efflux ratio at 2 h was 10.
The matching figures for `CC(C)(C)[C@H](c1cc(-c2cc(F)ccc2F)cn1Cc1ccccc1)N(CCCN)C(=O)CSC[C@H](NC(=O)CCOCCOCCOCCOCCNC(=O)CCN1C(=O)CC(SC[C@H](N)C(=O)O)C1=O)C(=O)O.O=C(O)C(F)(F)F.O=C(O)C(F)(F)F` (stereo partly drawn) [Example 226, (2R)-22-[(3R/S)-3-{[(2R)-2-Amino-2-carboxyethyl]sulphanyl}-2,5-dioxopyrrolidin-1-yl]-2-[({2-[(3-aminopropyl){(1R)-1-[1-benzyl-4-(2,5-difluorophenyl)-1H-pyrrol-2-yl]-2,2-dimethylpropyl}amino]-2-oxoethyl}sulphanyl)methyl]-4,20-dioxo-7,10,13,16-tetraoxa-3,19-diazadocosan-1-oic acid/trifluoroacetic (1:2)]: 222 nM, 1.49 nM, 0.3 ×10⁻⁶ cm/s and 0.2.
Regarding `CC(C)[C@H](NC(=O)CCCCCN1C(=O)CC(SC[C@H](N)C(=O)O)C1=O)C(=O)N[C@@H](CCCNC(N)=O)C(=O)N[C@@H](CCCCNC(=O)[C@@H](N)CCN(C(=O)CO)[C@@H](c1nn(-c2cc(F)ccc2F)cc1Cc1ccccc1)C(C)(C)C)C(=O)O` (stereo partly drawn) [Example 134, N-[6-(3-{[(2R)-2-Amino-2-carboxyethyl]sulphanyl}-2,5-dioxopyrrolidin-1-yl)hexanoyl]-L-valyl-N^5-carbamoyl-L-ornithyl-N^6-{(2S)-2-amino-4-[{(1R)-1-[4-benzyl-1-(2,5-difluorophenyl)-1H-pyrazol-3-yl]-2,2-dimethylpropyl}(glycoloyl)amino]butanoyl}-L-lysine/trifluoroacetic acid (1:1)], the results for the IC50 (in the data set on NCI-H292; in data set [1]) were no less than 500 nM and 4.35 nM, respectively. The Papp B→A at 2 h in data set [2] is 0.29 ×10⁻⁶ cm/s. Besides, the efflux ratio at 2 h in data set [2] turned out to be 0.5.

B1: P2D3(TPP-2196): comparative anti-TWEAKR antibody; variable domains from the patent literature, constant region added, "resulting in full-length IgGs" (protein)
light: DIVLTQSPASLAVSLGQRATISCRASKSVSTSSYSYMHWYQQKPGQPPKLLIKYTSNLESGVPARFSGSGSGTDFILNIHPVEEEDAATYYCQHSRELPWTFGGGTKLEIKRADAAPTVSIFPPSSEQLTSGGASVVCFLNNFYPKDINVKWKIDGSERQNGVLNSWTDQDSKDSTYSMSSTLTLTKDEYERHNSYTCEATHKTSTSPIVKSFNRNEC
heavy: QVSLKESGPGILQPSQTLSLTCSFSGFSLSTSGMGVSWIRQPSGKGLEWLAHIYWDDDKRYNPSLKSRLTISKDTSRNQVFLKITSVDTADTATYYCARRGPDYYGYYPMDYWGQGTSVTVSAKTTAPSVYPLAPVCGDTTGSSVTLGCLVKGYFPEPVTLTWNSGSLSSGVHTFPAVLQSDLYTLSSSVTVTSSTWPSQSITCNVAHPASSTKVDKKIEPRGPTIKPCPPCKCPAPNLLGGPSVFIFPPKIKDVLMISLSPIVTCVVVDVSEDDPDVQISWFVNNVEVHTAQTQTHREDYNSTLRVVSALPIQHQDWMSGKEFKCKVNNKDLPAPIERTISKPKGSVRAPQVYVLPPPEEEMTKKQVTLTCMVTDFMPEDIYVEWTNNGKTELNYKNTEPVLDSDGSYFMYSKLRVEKKNWVERNSYSCSVVHEGLHNHHTTKSFSRTPG
modifications: Mus Musculus
As a reminder, the Kd is a measure of binding affinity in units of concentration. Turning to B1, in data set [3], the “ka” value amounted to 1.32e+06 M⁻¹ s⁻¹ and the “kd” value was determined as 0.000564 s⁻¹. Also, the Kd in data set [3] (read-out: KD (n M )) was found to be 0.4 nM.
